# Counter-ions that a name gives are not always drawn. Like-named read-outs stand apart in the source and are kept apart here.
# Tests used:
# FPR2 = target: T1, FPR2 (Homo sapiens, UniProt P25090); assay: Inhibition of WKYMVM-induced [Ca2+]i flux in FPR2-HL60 cells; format: cell-based; conditions: 10 min preincubation, 5 nM WKYMVM; N.A. = no activity at < 50 µM; read-out: FPR1/FPR2 Agonist-Induced Δ[Ca^2+]i FPR2-HL60 IC50
# T1 construct: expressed in transfected cells
# T1 sequence (P25090 1-351): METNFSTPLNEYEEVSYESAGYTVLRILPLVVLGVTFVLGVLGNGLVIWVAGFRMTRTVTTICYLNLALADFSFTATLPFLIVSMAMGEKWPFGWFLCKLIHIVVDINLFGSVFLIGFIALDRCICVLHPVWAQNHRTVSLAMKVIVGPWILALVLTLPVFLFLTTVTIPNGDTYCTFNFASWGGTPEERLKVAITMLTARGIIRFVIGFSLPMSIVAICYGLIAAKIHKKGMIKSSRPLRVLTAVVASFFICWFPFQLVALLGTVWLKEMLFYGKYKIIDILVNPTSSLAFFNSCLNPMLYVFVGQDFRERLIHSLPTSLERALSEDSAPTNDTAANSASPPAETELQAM
# Protocol: (§1) Since these compounds elevated neutrophil [Ca^2+]i, and cytosolic Ca^2+ flux is a key component of neutrophil activation, we evaluated if they could alter neutrophil activation by FPR1 or FPR2 agonists. Neutrophils and FPR-transfected HL60 cells were preincubated for 10 min with crown ether compounds, and [Ca^2+]i flux was stimulated with either an FPR1 agonist (fMLF for human neutrophils and FPR1-HL60 cells) or an FPR2 agonist (WKYMVM for FPR2-HL60 cells).
# (§2) Human promyelocytic leukemia HL60 cells stably transfected with FPR1 (FPR1-HL60 cells) or FPR2 (FPR2-HL60 cells) (kind gifts from Dr. Marie-Josephe Rabiet, INSERM, Grenoble, France) were cultured in RPMI 1640 medium supplemented with 10% heat-inactivated fetal calf serum, 10 mM HEPES, 100 μg/mL streptomycin, 100 U/mL penicillin, and G418 (1 mg/mL). Although stable cell lines are cultured under G418 selection pressure, G418 may affect some assays, so it was removed in the last round of culture before assays were performed.
# (§3) Changes in neutrophil intracellular Ca^2+ concentrations ([Ca^2+]i) were measured with a FlexStation 3 scanning fluorometer (Molecular Devices, Sunnyvale, CA, USA). Briefly, human neutrophils were suspended in HBSS^−, loaded with Fluo-4AM at a final concentration of 1.25 μg/mL, and incubated for 30 min in the dark at 37 °C. After dye loading, the cells were washed with HBSS^−, resuspended in HBSS^+, separated into aliquots, and loaded into the wells of flat-bottom, half-area well black microtiter plates (2 × 10^5 cells/well). To assess the direct effects of test compounds on Ca^2+ flux, the compounds were added to the wells (final concentration of DMSO was 1%), and changes in fluorescence were monitored (λex = 485 nm, λem = 538 nm) every 5 s for 240 s at room temperature after addition of the test compound. To evaluate inhibitory effects of the compounds on FPR1/FPR2-dependent Ca^2+ flux, the compounds were added to the wells (final concentration of DMSO was 1%) with cells (human neutrophils or FPR1/FPR2 HL60 cells). The samples were preincubated for 10 min, followed by addition of 5 nM fMLF (for human neutrophils or FPR1-HL60 cells) or 5 nM WKYMVM (for FPR2-HL60 cells). The maximum change in fluorescence, expressed in arbitrary units over baseline, was used to determine the agonist response. Responses were normalized to the response induced by 5 nM fMLF or 5 nM WKYMVM, which were assigned as 100%. Curve fitting (at least five or six points) and calculation of median effective concentration values (EC50 or IC50) were performed by nonlinear regression analysis of the dose–response curves generated using Prism 7 (GraphPad Software, Inc., San Diego, CA, USA). Efficacy was determined by comparing individual responses activated by the test compounds to that induced by a positive control (5 nM fMLF), which was assigned a value of 100%.
# human neutrophils [1] = assay: Inhibition of fMLF-induced [Ca2+]i flux in human neutrophils; format: cell-based; conditions: Neutrophil, 10 min preincubation, 5 nM fMLF, N.A. = no activity at < 50 µM, read-out: FPR1/FPR2 Agonist-Induced Δ[Ca^2+]i Neutrophils IC50
# Protocol: as §1, §3
# human neutrophils [2] = assay: Ca2+ mobilization assay, direct effect of compounds on [Ca2+]i; format: cell-based; conditions: Neutrophil; for Emax: % of the response induced by 5 nM fMLF, read-out: Efficacy (converted)
# Excerpt: We screened 24 aza- and diaza-crown ethers with adamantyl, adamantylalkyl, aminomethylbenzoyl, and ε-aminocaproyl substituents for their Ca^2+ ionophore effects in human neutrophils. To monitor cytoplasmic Ca^2+ levels, we used the fluorescent Ca^2+ indicator Fluo-4, which is a dynamic single-wavelength fluorescent Ca^2+ indicator. Increases in fluorescence intensity (λex = 485 nm, λem = 538 nm) reflect the rise in cytoplasmic Ca^2+ concentrations ([Ca^2+]i; see Materials and Methods).
# as §3
# human neutrophils [3] = assay: fMLF-induced neutrophil chemotaxis (ChemoTx chambers); format: cell-based; conditions: 1 h, 1 nM fMLF, 60 min migration
# Protocol: Human neutrophils were suspended in HBSS^+ containing 2% (v/v) heat-inactivated fetal bovine serum (2 × 10^6 cells/mL), and effects of the compounds on fMLF-induced chemotaxis was analyzed in 96-well ChemoTx chemotaxis chambers (Neuroprobe, Gaithersburg, MD, USA). In brief, neutrophils were preincubated with the indicated concentrations of the test compounds or DMSO for 20 min at room temperature and added to the upper wells of the ChemoTx chemotaxis chambers. The lower wells were loaded with 30 µL of HBSS^+ containing 2% (v/v) fetal bovine serum and the indicated concentrations of test sample plus 1 nM fMLF, DMSO (negative control), or 1 nM fMLF as a positive control. Neutrophils were added to the upper wells and allowed to migrate through the 5.0-µm pore polycarbonate membrane filter for 60 min at 37 °C and 5% CO2. The number of migrated cells was determined by measuring ATP in lysates of transmigrated cells using a luminescence-based assay (CellTiter-Glo; Promega, Madison, WI, USA), and luminescence measurements were converted to absolute cell numbers by comparison of the values with standard curves obtained with known numbers of neutrophils. Curve fitting (at least eight to nine points) and calculation of median effective concentration values (IC50) were performed by nonlinear regression analysis of the dose-response curves generated using Prism 5.
# FPR1 = target: T2, FPR1 (Homo sapiens, UniProt P21462); assay: Inhibition of fMLF-induced [Ca2+]i flux in FPR1-HL60 cells; format: cell-based; conditions: 10 min preincubation, 5 nM fMLF; N.A. = no activity at < 50 µM; read-out: FPR1/FPR2 Agonist-Induced Δ[Ca^2+]i FPR1-HL60 IC50
# T2 construct: expressed in transfected cells
# T2 sequence (P21462 1-350): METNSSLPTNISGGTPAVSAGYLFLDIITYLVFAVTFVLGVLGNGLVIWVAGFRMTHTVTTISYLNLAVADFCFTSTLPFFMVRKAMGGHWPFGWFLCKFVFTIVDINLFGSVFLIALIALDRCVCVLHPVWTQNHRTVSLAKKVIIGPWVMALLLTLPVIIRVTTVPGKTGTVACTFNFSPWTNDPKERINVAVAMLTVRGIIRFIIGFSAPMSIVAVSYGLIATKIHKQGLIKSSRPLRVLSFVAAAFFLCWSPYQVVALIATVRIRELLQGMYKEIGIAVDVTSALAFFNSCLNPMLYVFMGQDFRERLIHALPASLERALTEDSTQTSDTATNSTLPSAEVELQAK
# Protocol: as §1, §2, §3
# human neutrophils [4] = assay: PMA-induced ROS production (L-012 chemiluminescence); format: cell-based; conditions: Neutrophil, 200 nM PMA, N.A. = no activity at < 50 µM
# Excerpt: To evaluate if the crown ethers could also disrupt GPCR-independent functional activity, we evaluated the effects of these compounds on phorbol 12-myristate 13-acetate (PMA)-stimulated reactive oxygen species (ROS) production. […] A representative concentration-dependent response for the inhibition of PMA-stimulated neutrophil ROS production by compound 15 is shown in Figure 2B. Since ROS production in neutrophils also requires increased [Ca^2+]i, the results again confirm that the impact of these compounds on Ca^2+ flux kinetics can alter neutrophil function.
# ROS production was determined by monitoring L-012-enhanced chemiluminescence, which represents a sensitive and reliable method for detecting superoxide anion (O2^−.) production. Human neutrophils were resuspended at 2 × 10^5 cells/mL in HBSS^+ supplemented with 40 µM L-012. Cells (100 µL) were aliquoted into wells of 96-well flat-bottomed microtiter plates containing test compounds at different concentrations (final DMSO concentration of 1%). Cells were preincubated for 10 min, and 200 nM PMA was added to each well to stimulate ROS production. Luminescence was monitored for 120 min (2-min intervals) at 37 °C using a Fluroscan Ascent FL microtiter plate reader (Thermo Electron, Waltham, MA, USA). The curve of light intensity (in relative luminescence units) was plotted against time, and the area under the curve was calculated as total luminescence. The compound concentration that inhibited ROS production by 50% of the PMA-induced response (positive control) was determined by graphing the percentage inhibition of ROS production versus the logarithm of concentration of test sample (IC50). Each curve was determined using five to seven concentrations.
# [5] = Homo sapiens, elevation of [Ca2+]i, Fluo-4, N.A. = no activity was found at concentration < 50 µM, read-out: EC50, effect on [Ca^2+]i flux in human neutrophils
# [6] = reciprocal of EC50 in human neutrophils, inactive compounds assigned zero, read-out: 1/[EC50] (converted)
melting point,IC50 (FPR2),IC50 (human neutrophils [1]),EC50 (human neutrophils [2]; [5]),EC50 (human neutrophils [2]; [6]),IC50 (human neutrophils [3]),IC50 (FPR1),IC50 (human neutrophils [4]),Structure (SMILES),Emax (human neutrophils [2]; Homo sapiens)
114 to 118 °C,–,–,–,–,–,–,–,"NCCCCCC(=O)N1CCOCCOCCN(C(=O)CCCCCN)CCOCC1 (as salt: hydrochloride) [Compound 22, N,N’-bis(6-aminohexanoyl)-4,10-diaza-15-crown-5 dihydrochloride]",–
–,30.7 ± 6.4 µM,3.4 ± 0.8 µM,15.7 ± 3.8 µM,15.7 µM,5.3 ± 0.4 µM,7.3 ± 2.6 µM,–,"O=C(N1CCOCCOCCN(C(=O)C23CC4CC(CC(C4)C2)C3)CCOCCOCC1)C12CC3CC(CC(C3)C1)C2 [Compound 16, N,N’-bis[1-oxo-1-(1-adamantyl)methyl]-4,13-diaza-18-crown-6]",25 to 50%
–,28.2 ± 2.6 µM,10.2 ± 2.6 µM,11.3 ± 3.1 µM,11.3 µM,–,9.6 ± 2.1 µM,15.3 ± 1.8 µM,"C1COCCN(CCC23CC4CC(CC(C4)C2)C3)CCOCCOCCN(CCC23CC4CC(CC(C4)C2)C3)CCO1 [Compound 21, N,N’-bis[2-(1-adamantyl)ethyl]-4,13-diaza-18-crown-6]",25 to 50%
74 to 78 °C,–,–,–,–,–,–,–,"C1COCCN(CC23CC4CC(CC(C4)C2)C3)CCOCCN(CC23CC4CC(CC(C4)C2)C3)CCO1 [Compound 19, N,N’-bis[(1-adamantyl)methyl]-4,10-diaza-15-crown-5]",–

# The next lines start with the compound.
Structure (SMILES),melting point,IC50 (FPR2),IC50 (human neutrophils [1]),EC50 (human neutrophils [2]; [5]),EC50 (human neutrophils [2]; [6]),IC50 (human neutrophils [3]),IC50 (FPR1),IC50 (human neutrophils [4]),Emax (human neutrophils [2]; Homo sapiens)
"O=C(NC1CCCCC1)C12CC3CC(CC(C3)C1)C2 [Compound 4, N-cyclohexyladamantane-1-carboxamide]",174 to 176 °C,–,–,–,–,–,–,–,–
"O=C(CC12CC3CC(CC(C3)C1)C2)N1CCOCCOCCOCCOCC1 [Compound 8, N-[2-(1-adamantyl)acetyl]aza-15-crown-5]",–,–,2.6 ± 0.4 µM,22.4 ± 4.3 µM,22.4 µM,13.2 ± 3.8 µM,37.1 ± 4.8 µM,–,–
"O=C(NC12CC3CC(CC(C3)C1)C2)C12CC3CC(CC(C3)C1)C2 [Compound 2, N-(1-adamantyl)adamantane-1-carboxamide]",255 to 257 °C,–,–,–,–,–,–,–,–
"O=C(CC12CC3CC(CC(C3)C1)C2)N1CCOCCOc2ccccc2OCCOCC1 [Compound 11, N-[2-(1-adamantyl)acetyl]benzoaza-15-crown-5]",141 to 142 °C,29.1 ± 3.2 µM,9.4 ± 0.6 µM,15.6 ± 4.4 µM,15.6 µM,12.8 ± 5.3 µM,–,–,25 to 50%
"O=C(N1CCOCCOc2ccccc2OCCOCC1)C12CC3CC(CC(C3)C1)C2 [Compound 10, N-[1-Oxo-1-(1-adamantyl)methyl]benzoaza-15-crown-5]",111 to 113 °C,36.4 ± 5.6 µM,11.2 ± 2.7 µM,9.7 ± 2.6 µM,9.7 µM,–,12.2 ± 1.9 µM,–,25 to 50%
"O=C(CC12CC3CC(CC(C3)C1)C2)NC12CC3CC(CC(C3)C1)C2 [Compound 3, N,2-di(1-adamantyl)acetamide]",242 to 244 °C,–,–,–,–,–,–,–,–
"O=C(N1CCOCCN(C(=O)C23CC4CC(CC(C4)C2)C3)CCOCC1)C12CC3CC(CC(C3)C1)C2 [Compound 12, N,N’-bis[1-oxo-1-(1-adamantyl)methyl]-4,10-diaza-12-crown-4]",–,–,4 ± 1.4 µM,23.8 ± 7.6 µM,23.8 µM,15.7 ± 4.2 µM,–,–,25 to 50%

# Source: PMC8069214, “Synthesis, Biological Evaluation, and Molecular Modeling of Aza-Crown Ethers” (Molecules, 2021)
